Results from US20110162092A1, “COMPOSITION COMPRISED OF AKAP12 AND USES OF AKAP12 MUTANT ZEBRAFISH AS AN ANIMAL MODEL” (SNU RDB FOUNDATION, priority 2008, published 2011).

Experiments:
[1] = tested on: Human Umbilical Vein Endothelial Cells (HUVEC); test: In vitro permeability assay using HUVEC (RITC-labeled dextran, transwell); format: cell-based; conditions: AKAP12 siRNA group treated with ROCKOUT, 15 minutes incubation
ve-cadherin = ve-cadherin expression in HUVEC by western-blotting and immunocytochemistry; format: cell-based, human; conditions: treated with both siRNA regarding AKAP12 and ROCKOUT
Description: To be specific, in the western-blotting, first, cells were dissolved in lysis buffer containing 10 mM HEPES (pH 7.9), 400 mM NaCl, 0.1 mM EDTA, 5% glycerol, 1 mM DTT (D1-dithiothreitol) and protease inhibitor cocktail, and the proteins in cells were quantified using BCA. From the whole cell lysate prepared as explained above, the proteins in cells were isolated according to molecular weight sizes using sodium dodecyl sulfate-polyacrylamide gel electrophoresis, and the proteins were moved to the polyvinyldifluoride membrane (Millipore). After that, blocking was performed, and the primary antibody was treated overnight (for 16 hours) at 4° C. On the next day, secondary antibodies regarding the primary antibodies were treated at room temperature for 2 hours, respectively, and detected using ECL PLUS (Amersham). As for the primary antibodies, VE-cadherin (Santa Cruz Biotechnology); F-actin (Sigma) were used.
As for the immunochemistry, first, cells were seeded in a 0.1% gelatin-coated slide, rinsed with cold PBS, and fixed for 10 minutes at room temperature with 4% paraformaldehyde. After that, the cells were rinsed again three times with PBS, treated with 0.5% Triton X-100 for 5 minutes, rinsed with PBS-T and underwent blocking at room temperature for 30 minutes with 0.1% blocking solution (Roche). […]

[2] = tested on: vein endothelial cells of the AKAP12 knockdown zebrafish; test: Movement of vein endothelial cells of AKAP12 knockdown zebrafish treated with RhoA signal inhibitor; format: in vivo; conditions: 200 uM, 44 hours after fertilization
AKAP12 alpha form mRNA = test: Zebrafish defect patterns in accordance with morpholino amount, alpha form; format: in vivo
Text: (§1) The present inventors knocked down AKAP12 alpha form mRNA and beta form mRNA using morpholino for zebrafish AKAP12 alpha and beta forms, and observed the defect patterns in accordance with the amounts of morpholino, respectively.

[3] = tested on: zebrafish AKAP12 alpha form; test: Vessel defects of AKAP12 knockdown tg(fli:egfp) zebrafish; format: in vivo; conditions: 2 ng morpholino; 2000 kDa tetramethylrhodamine-dextran within 48 to 60 hours
Description: The present inventors knocked down the zebrafish AKAP12 alpha and beta forms using the transgenic zebrafish ‘tg(fli:egfp)’ in which green fluoresces selectively in the endothelioyte of the vessels, and observed the defect pattern in the vessels. To be specific, the inventors knocked down the zebrafish AKAP12 alpha and beta forms by microinjecting 2 ng alpha) and 7.5 ng (beta) of morpholino for zebrafish KAAP12 alpha and beta forms, into the transgenic zebrafish ‘fli:egfp’, respectively, and within 48 to 60 hours, microinjected 25 mg/ml of red-fluorescent lysine-fixable tetramethylrhodamine-dextran, 2000 kDa (molecular probes) and observed through the LSM 510 META NLO confocal microscope (Carl Zeiss, Germany).

[4] = tested on: zebrafish AKAP12 alpha form mRNA; test: Genetic defect (phenotype) of zebrafish after microinjecting morpholino, alpha form; format: in vivo
Text: (§2) The present inventors prepared morpholino for the zebrafish AKAP12 alpha form mRNA and zebrafish AKAP12 beta form mRNA knockdown. The preparation of the morpholino was ordered to Gene Tools LLC. The method for morpholino preparation is written in Summerton, J. et al., Anti sense & Nucleic Acid Drug Development 7: 187-95, 1997. The prepared morpholino was so prepared to block the characteristic variant regions of each of the alpha and beta forms from binding to the site of splicing and thus block splicing and developing into mature mRNA, in which the alpha form morpholino was so designed to bind adjacent to 339th base of the AKAP12 alpha form as the sequence of […] (SEQ. ID. NO. 7) 25-mer, and the beta form morpholino was so designed to bind adjacent to the 227th base of the AKAP12 beta form as the sequence of […] (SEQ. ID. NO. 8) 25-mer (see FIG. 1).
(§3) The present invention knocked down zebrafish AKAP12 mRNA by microinjecting the prepared morpholino of <Example 3> into the zebrafish and observed the phenotype.
(§4) First, the inventors microinjected 7 ng and 10 ng of morpholino for AKAP12 mRNA alpha form, and microinjected 7.5 ng of morpholino for AKAP12 mRNA beta form.
(§5) Further, after injecting 3.7 ng, 7.5 ng and 10 ng of morpholino for zebrafish AKAP12 alpha and beta forms, the present inventors could confirm that the genetic defect appears in the beta form at about 7.5 ng and alpha form at about 3.7 ng (see FIG. 4).

[5] = tested on: zebrafish AKAP12 alpha form; test: Hemorrhage of AKAP12 alpha form knockdown zebrafish; format: in vivo
Text: (§6) The present inventors observed the embryos of […] AKAP12 alpha and beta form knockdown zebrafish, and as a result, could observe the bleeding in the 2 to 3 day-old zebrafish.

[6] = tested on: zebrafish AKAP12 alpha form; test: Micro-vasculature defect in brains of AKAP12 alpha form knockdown tg(fli:egfp) zebrafish; format: in vivo; conditions: 3 ng morpholino; 10 kDa tetramethylrhodamine-dextran after 3 days
Description: The present inventor knocked down the zebrafish AKAP12 alpha form using the transgenic zebrafish ‘tg(fli:egfp)’ in which green fluoresces selectively in the vein endothelial cells, and observed the defect pattern of the micro-vasculatures in brains. To be specific, the inventors knocked down the zebrafish AKAP12 alpha form by microinjecting 3 ng of morpholino for zebrafish AKAP12 alpha form into the transgenic zebrafish (fli:egfp) embryos, and then after 3 days, microinjected 25 mg/ml of red-fluorescent lysine-fixable tetramethylrhodamine-dextran, 10 kDa through the common cardinal vein of the zebrafish, and then observed through the LSM 510 META NLO confocal microscope (Carl Zeiss, Germany).

[7] = tested on: zebrafish AKAP12 alpha form; test: Heart defect of AKAP12 alpha form knockdown tg(cmlc:egfp) zebrafish; format: in vivo; conditions: 3.7 ng morpholino, 1.5 days later
Description: The present inventors knocked down zebrafish AKAP12 alpha form using the transgenic zebrafish ‘tg(cmlc:egfp)’ in which green fluoresces characteristically to the light chain of the heat muscles, and observed the heart defects of the zebrafish. That is, the inventors knocked down the zebrafish AKAP12 alpha form by microinjecting 3.7 ng of morpholino for zebrafish AKAP12 alpha form into the transgenic zebrafish (‘tg(cmlc:egfp)’) embryos, and observed the hearts of the zebrafish after 1.5 days later using the LSM 510 META NLO confocal microscope Carl Zeiss, Germany).

[8] = tested on: zebrafish AKAP12 beta form mRNA; test: Genetic defect (phenotype) of zebrafish after microinjecting morpholino, beta form; format: in vivo
Text: as §2, §3, §4, §5

[9] = tested on: zebrafish AKAP12 beta form; test: Hemorrhage of AKAP12 beta form knockdown zebrafish; format: in vivo; conditions: 7.5 ng injected, day 3
Text: as §6

AKAP12 beta form mRNA = test: Zebrafish defect patterns in accordance with morpholino amount, beta form; format: in vivo
Text: as §1

[10] = morpholino only, control group of rescue test

c1ccc2c(-c3ccncc3)c[nH]c2c1 [ROCKOUT]
RITC permeability [1]: decreased permeability | expression of ve-cadherin (ve-cadherin): the expression of ve-cadherin increased back | movement of vein endothelial cells [2]: the excessive movement of the vein endothelial cells slowed

morpholino for zebrafish AKAP12 alpha form: 25-mer morpholino TCTTACCTGTTAGAGTTATTGTCCC (SEQ. ID. NO. 7), binds adjacent to 339th base of AKAP12 alpha form, blocks splicing (all phosphorodiamidate morpholino (PMO))
defect pattern (AKAP12 alpha form mRNA; 1 ng and 2 ng): bleeding only | defect pattern (AKAP12 alpha form mRNA; 4 ng and more): decreasing bleeding due to severe defects of hearts and other veins | defect pattern (AKAP12 alpha form mRNA; 3 and 4 ng): both the bleeding and defects in heart and trunk veins | defect pattern in the vessels, dextran leakage [3]: non-uniform micro-vasculature in the brains and also the red lysine-fixable tetramethylrhodamine-dextran leaked out of the green vessel | mRNA expression pattern of AKAP12 alpha form by RT-PCR ([4]; 7 ng and 10 ng injected, by degree of defect): the zebrafish with severer degree of defects had lower degree of mRNA expression | phenotype: tail portions and mobility ([4]; 7 ng and 10 ng microinjected): crooked or shortened tail portions and abnormal mobility | defect patterns [4, 10]: crooked trunks and bleeding | defect patterns ([4]; only 4 ng morpholino, control group of rat mRNA rescue): defect patterns including crooked and shortened tail and deformed hearts | rate of zebrafish showing hemorrhage ([5]; 3 ng injected, day 3): approximately 50% | rate of zebrafish with hemorrhage versus amount ([5]; 1, 2 and 3 ng in sequence): hemorrhage increased as the amount of injected morpholino increased | defect pattern of micro-vasculatures in brains, dextran distribution [6]: non-uniform micro-vasculature in brains and also the red lysine-fixable tetramethylrhodamine-dextran was distributed around the green micro-vasculatures | heart shape (atriums and ventricles) [7]: elongated atriums and ventricles | heartbeats [7]: non-uniform and weak heartbeats

morpholino for zebrafish AKAP12 beta form: 25-mer morpholino TACCTTGCCATCTGCGGTTTCTCCA (SEQ. ID. NO. 8), binds adjacent to 227th base of AKAP12 beta form, blocks splicing (all phosphorodiamidate morpholino (PMO))
amount of morpholino at which the genetic defect appears ([8]; 3.7 ng, 7.5 ng and 10 ng injected): about 7.5 ng | phenotype: tail portions and mobility ([8]; 7.5 ng microinjected): crooked or shortened tail portions and abnormal mobility | defect patterns [8, 10]: crooked trunks and bleeding | rate of zebrafish showing hemorrhage [9]: approximately 27% | defect pattern (AKAP12 beta form mRNA; 7.5 ng and 8 ng): both the bleeding and defects of heat and trunk veins concurrently | defect pattern (AKAP12 beta form mRNA; 9 ng or more): only the defects in heart and trunk veins
